The source of these data is patent US20230339835A1, “2,3,5-TRIMETHYL-6-NONYLCYCLOHEXA-2,5-DIENE-1,4-DIONE FOR SUPPRESSING AND TREATING ALPHA-SYNUCLEINOPATHIES, TAUOPATHIES, AND OTHER DISORDERS” (PTC THERAPEUTICS, INC., priority 2018, published 2023).

Test [1] relates to PD patient fibroblasts (ND29542). The experiment in a line: Rescue of PD patient fibroblasts from BSO plus iron-induced oxidative stress. Format: cell-based, human. The conditions noted are these: BSO (125 μM) plus iron (125 μM); for Max Rescue (@ 500 nM): 500 nM compound, unit assumed; for EC50: Homo sapiens, Fibroblast, concentration at which 50% maximal rescue of cell viability was observed. As for the experimental part:
An initial screen was performed to identify the effectiveness of compounds for the amelioration of PD and AD. Test samples and solvent controls were tested for their ability to rescue PD and AD fibroblasts stressed by addition of L-buthionine-(S,R)-sulfoximine (BSO, a specific inhibitor of GSH synthetase) plus iron (e.g. iron citrate), in a similar manner as that described in Jauslin et al., Hum. Mol. Genet. 11(24):3055 (2002), Jauslin et al., FASEB J. 17:1972-4 (2003), and International Patent Application WO 2004/003565. This specific BSO-mediated cell death was prevented or ameliorated by administration of compounds described herein.
The AD experiments were performed as follows. PD experiments were performed in a similar manner; certain specific conditions are noted below in Table 1A.
MEM (a medium enriched in amino acids and vitamins) and Medium 199 (M199) with Earle's Balanced Salts (EBS), without phenol red, were purchased from Invitrogen. Fetal Calf Serum was obtained from Corning. Basic fibroblast growth factor (bFGF) and epidermal growth factor (EGF) were purchased from PeproTech. Penicillin-streptomycin-glutamine mix, L-buthionine (S,R)-sulfoximine, iron citrate, and insulin from bovine pancreas were purchased from Sigma. Calcein AM was purchased from Anaspec. Cell Culture Medium was prepared by combining 450 mL MEM, 50 mL Fetal Calf Serum, 100 U/mL penicillin, and 100 microgram/mL streptomycin. Assay medium was prepared by combining 125 mL M199, 50 mL Fetal Calf Serum, 100 U/mL penicillin, 100 microgram/mL streptomycin, 2 mM glutamine, 10 microgram/mL insulin, 10 ng/mL EGF, and 10 ng/mL bFGF; MEM was added to make the volume up to 500 mL. 10 mM BSO and 10 mM iron citrate solutions were prepared in water with subsequent filter-sterilization and stored at −20° C.
The test samples were supplied in 1.5 mL glass vials or polypropylene vials. The compounds were diluted with DMSO, to result in a 1 mM stock solution. Once dissolved, they were stored at −20° C.
A culture of AD or PD patient-derived fibroblasts was started from a vial with approximately 500,000 cells stored in liquid nitrogen. Cells were propagated in Cell Culture Medium, with subcultivation every third day by trypsinization at a ratio of 1:3. Once confluent, fibroblasts were harvested by trypsinization, resuspended in Assay Medium, and seeded at a final cell density of 2,500 cells/0.1 mL per well of a standard 96-well tissue culture plate. […]
100 microliters of Calcein AM (1 microM) in PBS+Ca+Mg was then added to each well. […] After that time fluorescence (excitation/emission wavelengths of 485 nm and 525 nm, respectively) was read on a Spectramax fluorescence reader. Data were analyzed using standard four-parameter curve fit algorithms (XLFit or Prism) to determine the EC50 concentration for each compound.

Test [2] relates to N27 rat dopaminergic cells overexpressing a truncated human αSynuclein-GFP fusion protein. The experiment in a line: Inhibition of RSL3-induced αSynuclein aggregation in N27 cells. Format: cell-based. The conditions noted are these: 60 nM RSL3, 70 nM compound, 24 hr; for inhibition of RSL3-induced αSynuclein aggregation: vs RSL3 only (Dunnett's test). As for the experimental part:
N27 rat dopaminergic cells (purchased from EMD Millipore, SCC048) were transformed to stably overexpress truncated α-Synuclein fused with green fluorescent protein (GFP) with a plasmid construct obtained from Origene (RG221446). Cells were maintained in selection media which consisted of RPMI 1640 media supplemented with 10% (v/v) fetal bovine serum (Millipore, ES-009-B), 1% (v/v) Pencillin-Streptomycin (Gibco, 15140-122), 1% (v/v) L-Glutamine (Gibco, 25030-081) and 500 μg/mL of G418 (Gibco, 10131-027).
N27 rat dopaminergic cells overexpressing a truncated (112 amino acid) human αSynuclein-GFP fusion protein, as described above, were maintained in normal culture conditions as described above. The day before the experiment, cells were plated in 96 well optical bottom, black walled plates at 3,000 cells/well, and maintained at 37° C. for 24 hr. The experiment was initiated by co-treating cells with (1S,3R)-methyl 2-(2-chloroacetyl)-1-(4-(methoxycarbonyl)phenyl)-2,3,4,9-tetrahydro-1H-pyrido[3,4-b]indole-3-carboxylate (1S,3R-RSL3, described by Yang et al., Cell 156:317-331 (2014)) (60 nM) and 70 nM compounds (2,3,5-trimethyl-6-nonylcyclohexa-2,5-diene-1,4-dione (C9), 2,3,5-trimethyl-6-octylcyclohexa-2,5-diene-1,4-dione (C8), or 2,3,5-trimethyl-6-heptylcyclohexa-2,5-diene-1,4-dione (C7)) using a D300e compound printer (Tecan), and placed back in the incubator at 37° C. for 24 hr. Cells were fixed with 4% paraformaldehyde for 15 minutes at room temperature, washed 3 times with Dulbecco's phosphate-buffered saline (DPBS) buffer, and then incubated at room temperature for 48 hr with 1% Triton-X 100 solution (in DPBS) to enable selective labeling of aggregated αSynuclein. Cells were then washed and standard immunocytochemistry (ICC) methods were employed to label total αSynuclein (mouse anti-αSynuclein, 1:250, BD Biosciences). Cells were incubated with primary antibody overnight at 4° C. and then washed with DPBS 3 times the following day. Cells were then incubated at room temperature with a fluorescently conjugated secondary antibody (goat anti-mouse Alexa 647, Invitrogen) for 2 hr at room temperature. 10 nM Hoechst was also added to label nuclei, and cells were imaged on a high-content imaging platform (ThermoFisher, HSC Cellomics Arrayscan) to quantify total aggregated αSynuclein (see FIG. 3A).
Statistical analysis of samples was performed via ordinary one-way ANOVA analysis with Dunnett's multiple comparisons test, comparing RSL3 only-treated vs. RSL3 plus compound-treated cells.

One may read the EC50 as the concentration at which the effect is half-maximal. As for `CCCCCCCCC1=C(C)C(=O)C(C)=C(C)C1=O` [Compound C8, 2,3,5-trimethyl-6-octylcyclohexa-2,5-diene-1,4-dione, reference compound], in test [1], the Max Rescue (@ 500 nM) is 73% and the EC50 was over 500 nM. In addition, the “inhibition of RSL3-induced αSynuclein aggregation” value in test [2] is “significant inhibition”.
As to `CCCCCCCCCC1=C(C)C(=O)C(C)=C(C)C1=O` [Compound C9, 2,3,5-trimethyl-6-nonylcyclohexa-2,5-diene-1,4-dione], in test [1], the Max Rescue (@ 500 nM) was 103% and the EC50 was 84 nM. For the same compound, in test [2], the “level of aggregation inhibition over C8” value is recorded as “approximately 5.45 fold” and the “inhibition of RSL3-induced αSynuclein aggregation” value is recorded as “significant inhibition”.
